System: pancreatic cancer MIA PaCa-2 cells
Assay: cells
Settings: Homo sapiens, MIA PaCa-2, read-out: EC50, μM MIA PaCa-2
Description: Fig 1 A, Structure of NSC130362. B, Dose response curve of NSC130362 in MIA PaCa-2 cells. Cells were pre-incubated with NSC130362 for 2 h followed by addition of ATO (5 μM) and incubation for an additional 24 h. At the end of the treatment, the ratio of dead cells was determined by a CellTiterGlo reagent.

| Structure (SMILES) | EC50 |
| --- | --- |
| CCCC(=O)NC1=C(Cl)C(=O)c2ccccc2C1=O [compound 31] | 10.4 µM |
| O=C1C(Nc2ccccc2)=CC(=O)c2ncccc21 [compound 67, reference compound] | 1 µM |
| CCCCCCCNC1=C(Cl)C(=O)c2ccccc2C1=O [compound 8] | > 90 µM |
| COCCNC1=C(Cl)C(=O)c2ccccc2C1=O [compound 21] | 13.8 µM |
| Cc1ccccc1NC1=C(Cl)C(=O)c2ccccc2C1=O [compound 40] | 78.5 µM |
| COC1=C(N(C)C)C(=O)c2ccccc2C1=O [compound 53] | 23.4 µM |
| CC1=C(N2CC2)C(=O)c2ccccc2C1=O [compound 55] | 3.1 µM |
| NC1=C(Cl)C(=O)c2ccccc2C1=O [compound 1, 2-chloro-3-amino-1,4-NQ] | 8.4 µM |
| O=C1C(Cl)=C(NCCO)C(=O)c2ccccc21 [compound 17] | 9.8 µM |
| CCNC1=C(Cl)C(=O)c2ccccc2C1=O [compound 3] | 59 µM |

Same assay, conditions: Homo sapiens, MIA PaCa-2, read-out: LC50 MIA PaCa-2

| Structure (SMILES) | CC50 |
| --- | --- |
| CCCC(=O)NC1=C(Cl)C(=O)c2ccccc2C1=O [compound 31] | 10.4 µM |
| O=C1C(Nc2ccccc2)=CC(=O)c2ncccc21 [compound 67, reference compound] | 1 µM |
| CCCCCCCNC1=C(Cl)C(=O)c2ccccc2C1=O [compound 8] | > 90 µM |
| COCCNC1=C(Cl)C(=O)c2ccccc2C1=O [compound 21] | 13.8 µM |
| Cc1ccccc1NC1=C(Cl)C(=O)c2ccccc2C1=O [compound 40] | 78.5 µM |
| COC1=C(N(C)C)C(=O)c2ccccc2C1=O [compound 53] | 23.4 µM |
| CC1=C(N2CC2)C(=O)c2ccccc2C1=O [compound 55] | 3.1 µM |
| NC1=C(Cl)C(=O)c2ccccc2C1=O [compound 1, 2-chloro-3-amino-1,4-NQ] | 8.4 µM |
| O=C1C(Cl)=C(NCCO)C(=O)c2ccccc21 [compound 17] | 9.8 µM |
| CCNC1=C(Cl)C(=O)c2ccccc2C1=O [compound 3] | 59 µM |

Same assay, conditions: in the presence of ATO (5 μM), 24 h

| Structure (SMILES) | dose-response in MIA PaCa-2 cells |
| --- | --- |
| O=C1C(Cl)=C(NCCO)C(=O)c2ccccc21 [compound 17] | induced a dose-response over a hundred-fold concentration range |

Same assay, conditions: versus compound 15

| Structure (SMILES) | increase in anti-cancer activity |
| --- | --- |
| CC1=C(N2CC2)C(=O)c2ccccc2C1=O [compound 55] | 2 fold |

Same assay, conditions: versus compound 64

| Structure (SMILES) | increase in anti-cancer activity |
| --- | --- |
| O=C1C(Nc2ccccc2)=CC(=O)c2ncccc21 [compound 67, reference compound] | approximately 10 fold |

System: hepatocytes
Assay: Hydrogen peroxide cell-based assay (ROS induction), hepatocytes
Set-up: species or system Human
Settings: 30 μM; hydrogen peroxide level relative to DMSO-treated cells (100%)
Description: Cells were incubated for 2 h with either compounds (30 μM) or DMSO in a 96-well plate. After the treatment, 80 μl of cell culture medium was collected and the level of hydrogen peroxide was determined using a Hydrogen Peroxide Cell-Based Assay kit (Cayman).
Cells were incubated with the compounds for 4 h and the level of ROS induction was measured by a hydrogen peroxide cell-based assay kit. Compounds were assayed at a fixed concentration of 30 μM and the measured level of hydrogen peroxide was expressed as percentage in relation to DMSO-treated cells (100%). […] This distinction was more evident for compounds with the highest selective cytotoxicity index. […] We conclude that the selective induction of ROS in cancer cells is required but not sufficient factor for the selective anti-tumor activity.

| Structure (SMILES) | ROS increase, % Hepatocytes |
| --- | --- |
| CCCC(=O)NC1=C(Cl)C(=O)c2ccccc2C1=O [compound 31] | 228% |
| O=C1C(Nc2ccccc2)=CC(=O)c2ncccc21 [compound 67, reference compound] | 179% |
| CCCCCCCNC1=C(Cl)C(=O)c2ccccc2C1=O [compound 8] | 115% |
| COCCNC1=C(Cl)C(=O)c2ccccc2C1=O [compound 21] | 154% |
| Cc1ccccc1NC1=C(Cl)C(=O)c2ccccc2C1=O [compound 40] | 122% |
| COC1=C(N(C)C)C(=O)c2ccccc2C1=O [compound 53] | 117% |
| NC1=C(Cl)C(=O)c2ccccc2C1=O [compound 1, 2-chloro-3-amino-1,4-NQ] | 156% |
| O=C1C(Cl)=C(NCCO)C(=O)c2ccccc21 [compound 17] | 132% |
| CCNC1=C(Cl)C(=O)c2ccccc2C1=O [compound 3] | 115% |

Target: T1, human GSR enzyme (recombinant GSR) (Homo sapiens, UniProt P00390)
T1 construct: made in house; host or cells: E. coli BL21(DE3)
T1 sequence (P00390 44-522): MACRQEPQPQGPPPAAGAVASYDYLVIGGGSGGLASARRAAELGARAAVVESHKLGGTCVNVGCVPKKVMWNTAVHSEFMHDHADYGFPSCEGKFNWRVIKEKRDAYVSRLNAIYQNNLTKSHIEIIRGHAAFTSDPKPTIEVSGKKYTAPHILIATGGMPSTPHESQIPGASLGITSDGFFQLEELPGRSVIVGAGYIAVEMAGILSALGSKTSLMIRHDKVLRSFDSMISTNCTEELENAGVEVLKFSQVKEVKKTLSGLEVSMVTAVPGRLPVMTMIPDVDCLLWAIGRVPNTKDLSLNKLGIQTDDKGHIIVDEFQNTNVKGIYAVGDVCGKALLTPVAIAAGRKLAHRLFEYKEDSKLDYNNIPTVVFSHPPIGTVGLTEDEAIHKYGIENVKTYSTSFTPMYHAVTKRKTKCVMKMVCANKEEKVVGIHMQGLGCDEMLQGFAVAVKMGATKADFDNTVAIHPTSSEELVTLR
Assay: Glutathione reductase (GSR) activity assay
Format: biochemical
Settings: 2 h at 25°C, read-out: GSR, enzyme residual activity as compared to DMSO-treated sample
Description: Recombinant GSR (0.5 u/well) in a 96-well plate was incubated in the GSR assay buffer (50 mM potassium phosphate buffer, pH 7.5 supplemented with 1 mM EDTA), 100 μl with and without compound (30 μM) for 2 h at 25°C. At the end of incubation, 100 μl of solution containing NADPH (0.087 mM), oxidized glutathione (GSSG) (0.95 mM) and 1 μl of the reagent that detects ratio of GSSG to reduced glutathione (GSH) (Abcam) were added and the mixture was incubated for an additional 1 h at 25°C. GSR activity was measured by using 490-nm excitation and monitoring fluorescence at 520 nm with a fluorescence plate reader. One unit of GSR activity was defined as the amount of enzyme required to produce 1 μM of GSH in a total reaction volume of 200 μl in 1 minute in the GSR assay buffer containing NADPH (0.087 mM), GSSG (0.95 mM) and 1 μl of GSH/GSSG ratio detection reagent (Abcam).
Next, we evaluated the inhibitory activity of the selected compounds against human GSR enzyme using recombinant GSR and Abcam GSH/GSSG ratio detection reagent (Table 1). Briefly, GSR activity was measured by following oxidized glutathione (GSSG) reduction in the presence of NADPH and expressed as percentage of residual activity with respect to DMSO-treated enzyme. The residual activity of GSR for both the non-toxic and toxic compounds was quite heterogeneous, ranging from 100% (compounds 38) to 3% (compound 32). […] We thus conclude that GSR inhibitory activity alone cannot be used to predict the selective cytotoxicity index.

| Structure (SMILES) | remaining activity at 30 µM |
| --- | --- |
| CCCC(=O)NC1=C(Cl)C(=O)c2ccccc2C1=O [compound 31] | 28% |
| O=C1C(Nc2ccccc2)=CC(=O)c2ncccc21 [compound 67, reference compound] | 53% |
| CCCCCCCNC1=C(Cl)C(=O)c2ccccc2C1=O [compound 8] | 93% |
| COCCNC1=C(Cl)C(=O)c2ccccc2C1=O [compound 21] | 65% |
| Cc1ccccc1NC1=C(Cl)C(=O)c2ccccc2C1=O [compound 40] | 72% |
| COC1=C(N(C)C)C(=O)c2ccccc2C1=O [compound 53] | 61% |
| CC1=C(N2CC2)C(=O)c2ccccc2C1=O [compound 55] | 83% |
| NC1=C(Cl)C(=O)c2ccccc2C1=O [compound 1, 2-chloro-3-amino-1,4-NQ] | 33% |
| O=C1C(Cl)=C(NCCO)C(=O)c2ccccc21 [compound 17] | 65% |
| CCNC1=C(Cl)C(=O)c2ccccc2C1=O [compound 3] | 59% |

Same assay, conditions: read-out: GSR-inhibiting activity

| Structure (SMILES) | inhibition at 30 µM |
| --- | --- |
| CCCCCCCNC1=C(Cl)C(=O)c2ccccc2C1=O [compound 8] | 7% |
| CC1=C(N2CC2)C(=O)c2ccccc2C1=O [compound 55] | 17% |
| NC1=C(Cl)C(=O)c2ccccc2C1=O [compound 1, 2-chloro-3-amino-1,4-NQ] | 67% |

System: not listed separately
Assay: Distribution coefficient LogD
Format: physicochemical
Settings: octanol/water, pH 7.4; read-out: LogD, pH = 7.4
Source text: We conclude that the analysis of the octanol-water partitioning is not sufficient to establish a link between degree of lipophilicity and biological activities of the selected compounds.

| Structure (SMILES) | logD |
| --- | --- |
| CCCC(=O)NC1=C(Cl)C(=O)c2ccccc2C1=O [compound 31] | 2.03 |
| O=C1C(Nc2ccccc2)=CC(=O)c2ncccc21 [compound 67, reference compound] | 3.45 |
| CCCCCCCNC1=C(Cl)C(=O)c2ccccc2C1=O [compound 8] | 0.17 |
| COCCNC1=C(Cl)C(=O)c2ccccc2C1=O [compound 21] | 0 |
| Cc1ccccc1NC1=C(Cl)C(=O)c2ccccc2C1=O [compound 40] | 0 |
| COC1=C(N(C)C)C(=O)c2ccccc2C1=O [compound 53] | 0 |
| NC1=C(Cl)C(=O)c2ccccc2C1=O [compound 1, 2-chloro-3-amino-1,4-NQ] | 2.01 |
| O=C1C(Cl)=C(NCCO)C(=O)c2ccccc21 [compound 17] | 1.12 |
| CCNC1=C(Cl)C(=O)c2ccccc2C1=O [compound 3] | 1.01 |

Same assay, conditions: pH 7.4

| Structure (SMILES) | logD |
| --- | --- |
| CC1=C(N2CC2)C(=O)c2ccccc2C1=O [compound 55] | 0.12 |

System: PANC1 pancreatic carcinoma cells
Assay: Combined treatment with pancreatic cancer drugs, PANC1 cells
Format: cell-based, Human
Settings: NSC130362 10 μM 2 h, then drugs 10 μM 24 h
Description: (§1) Fig 2 Combined treatment of NSC130362 with pancreatic cancer drugs against PANC1 and YAPC cells. Cells were pre-incubated with NSC130362 (10 μM) for 2 h followed by addition of drugs (10 μM) and incubation for an additional 24 h. […] The first bar is NSC130362 alone. *, P<0.05.

| Structure (SMILES) | effect on apoptosis induction by pancreatic cancer drugs, PANC1 |
| --- | --- |
| O=C1C(Cl)=C(NCCO)C(=O)c2ccccc21 [compound 17] | significantly increased the ability of all tested pancreatic cancer drugs |

System: YAPC pancreatic carcinoma cells
Assay: Combined treatment with pancreatic cancer drugs, YAPC cells
Format: cell-based, Human
Settings: NSC130362 10 μM 2 h, then drugs 10 μM 24 h
Description: as §1

| Structure (SMILES) | effect on apoptosis induction by pancreatic cancer drugs, YAPC |
| --- | --- |
| O=C1C(Cl)=C(NCCO)C(=O)c2ccccc21 [compound 17] | significantly increased the ability of all tested pancreatic cancer drugs |

System: chemotherapy resistant prostate carcinoma cells
Assay: Combined treatment with ATO, docetaxel, MDV3100, prostate cancer cells
Format: cell-based
Settings: NSC130362 10 μM 2 h, then docetaxel 10 μM 24 h
Description: Fig 3 Combined treatment of NSC130362 with ATO, docetaxel, and MDV3100 against prostate cancer cells. Cells were pre-incubated with NSC130362 (10 μM) for 2 h followed by addition of drugs (10 μM) and incubation for an additional 24 h. […] The first bar in the treatment of each cell line is NSC130362 alone. *, P<0.05.

| Structure (SMILES) | potentiation of docetaxel-induced cytotoxicity |
| --- | --- |
| O=C1C(Cl)=C(NCCO)C(=O)c2ccccc21 [compound 17] | potentiated docetaxel-induced cytotoxicity, but to a lesser extent |

Same assay, conditions: NSC130362 10 μM 2 h, then drugs 10 μM 24 h

| Structure (SMILES) | potentiation of ATO or MDV3100 effect on cell viability |
| --- | --- |
| O=C1C(Cl)=C(NCCO)C(=O)c2ccccc21 [compound 17] | efficiently potentiated the effect on cell viability of either ATO or MDV3100 |

System: human primary hepatocytes
Assay: not given
Settings: read-out: EC50, μM Hepatocytes ATO; in the presence of ATO (5 μM); SD does not exceed 10%

| Structure (SMILES) | EC50 |
| --- | --- |
| O=C1C(Nc2ccccc2)=CC(=O)c2ncccc21 [compound 67, reference compound] | 19.4 µM |

Same assay, conditions: versus compound 3

| Structure (SMILES) | increase in toxicity to hepatocytes |
| --- | --- |
| COCCNC1=C(Cl)C(=O)c2ccccc2C1=O [compound 21] | approximately 3 fold |

Same assay, conditions: versus compound 15

| Structure (SMILES) | reduction in toxicity to hepatocytes |
| --- | --- |
| CC1=C(N2CC2)C(=O)c2ccccc2C1=O [compound 55] | more than 10 fold |

Same assay, conditions: versus compound 64

| Structure (SMILES) | decrease in toxicity to hepatocytes |
| --- | --- |
| O=C1C(Nc2ccccc2)=CC(=O)c2ncccc21 [compound 67, reference compound] | 3 fold |

System: not given
Assay: not given
Settings: in words; cited from earlier work

| Structure (SMILES) | half-life in the mouse bloodstream |
| --- | --- |
| O=C1C(Cl)=C(NCCO)C(=O)c2ccccc21 [compound 17] | short half-life |

System: not given
Assay: not given
Settings: in words; cited from earlier work
Remark: another data set of the same source

| Structure (SMILES) | anti-tumor activity in vivo |
| --- | --- |
| O=C1C(Cl)=C(NCCO)C(=O)c2ccccc21 [compound 17] | demonstrated anti-tumor activity in vivo |
